Test results from patent publication US11028079B2 (ConverGene LLC, priority 2015, dated 2021).

target: T1, BRD4 bromodomains (Homo sapiens, UniProt O60885); experiment: BROMOscan bromodomain competition binding assay (DiscoveRx); conditions: Kd from 11 compound concentrations ranging from 0 to 10 μM, read-out: BROMOscan Relative Activity
T1 construct: fused on or other part: T7 phage capsid protein (phage-display fusion; the phage DNA is read out by qPCR)
Procedure, shortened: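 Compounds in 0.1% DMSO/0.9% MEG competed with a solid-phase acetylated peptide for T7 phage-fused BRD4 bromodomains, with the retained bromodomain measured by qPCR.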

Row | SMILES | Kd [nM]
1 | Cc1noc(C)c1-c1ccc2nc(N3CCN(CCN(C)C)CC3)nc(N3CCC(C(=O)O)CC3)c2c1 [Example 254, 1-(2-(4-(2-(dimethylamino)ethyl)piperazin-1-yl)-6-(3,5-dimethylisoxazol-4-yl)quinazolin-4-yl)piperidine-4-carboxylic acid] | 500 to 5000
2 | Cc1noc(C)c1-c1ccc2nc(-c3cnn(CCO)c3)nc(N3CCC(C(=O)O)CC3)c2c1 [Example 255, 1-(6-(3,5-dimethylisoxazol-4-yl)-2-(1-(2-hydroxyethyl)-1H-pyrazol-4-yl)quinazolin-4-yl)piperidine-4-carboxylic acid] | 500 to 5000
3 | Cc1noc(C)c1-c1ccc2nc(C(=O)NCC3CC(F)(F)C3)nc(NCc3cccc(Cl)c3)c2c1 [Example 256, 4-((3-chlorobenzyl)amino)-N-((3,3-difluorocyclobutyl)methyl)-6-(3,5-dimethylisoxazol-4-yl)quinazoline-2-carboxamide] | 500 to 5000
4 | Cc1n[nH]c(C)c1CNC(=O)c1nc(NCc2cccc(Cl)c2)c2cc(-c3c(C)noc3C)ccc2n1 [Example 257, 4-((3-chlorobenzyl)amino)-N-((3,5-dimethyl-1H-pyrazol-4-yl)methyl)-6-(3,5-dimethylisoxazol-4-yl)quinazoline-2-carboxamide] | < 500
5 | Cc1ncsc1CNC(=O)c1nc(NCc2cccc(Cl)c2)c2cc(-c3c(C)noc3C)ccc2n1 [Example 258, 4-((3-chlorobenzyl)amino)-6-(3,5-dimethylisoxazol-4-yl)-N-((4-methylthiazol-5-yl)methyl)quinazoline-2-carboxamide] | < 500
6 | Cc1noc(C)c1CNC(=O)c1nc(NCc2cccc(Cl)c2)c2cc(-c3c(C)noc3C)ccc2n1 [Example 259, 4-((3-chlorobenzyl)amino)-6-(3,5-dimethylisoxazol-4-yl)-N-((3,5-dimethylisoxazol-4-yl)methyl)quinazoline-2-carboxamide] | < 500
7 | Cc1nc(C)c(CNC(=O)c2nc(NCc3cccc(Cl)c3)c3cc(-c4c(C)noc4C)ccc3n2)s1 [Example 260, 4-((3-chlorobenzyl)amino)-6-(3,5-dimethylisoxazol-4-yl)-N-((2,4-dimethylthiazol-5-yl)methyl)quinazoline-2-carboxamide] | < 500
8 | Cc1noc(C)c1-c1ccc2ncnc(N3CCC(C(=O)O)CC3)c2c1 [Example 261, 1-(6-(3,5-dimethylisoxazol-4-yl)quinazolin-4-yl)piperidine-4-carboxylic Acid] | 500 to 5000
9 | Cc1noc(C)c1-c1ccc2nc(-c3cnn(CC(C)(C)O)c3)nc(N3CCOC[C@@H]3c3ccccc3)c2c1 [Example 262, (S)-1-(4-(6-(3,5-dimethylisoxazol-4-yl)-4-(3-phenylmorpholino)quinazolin-2-yl)-1H-pyrazol-1-yl)-2-methylpropan-2-ol] | < 500
10 | Cc1noc(C)c1-c1ccc2nc(-c3cnn(CC(C)(C)O)c3)nc(N3CCOC[C@H]3c3ccccc3)c2c1 [Example 263, (R)-1-(4-(6-(3,5-dimethylisoxazol-4-yl)-4-(3-phenylmorpholino)quinazolin-2-yl)-1H-pyrazol-1-yl)-2-methylpropan-2-ol] | < 500
11 | Cc1noc(C)c1-c1ccc2ncnc(N3CCOCC3c3ccccc3)c2c1 (centres unmarked) [Example 264, 4-(6-(3,5-dimethylisoxazol-4-yl)quinazolin-4-yl)-3-phenylmorpholine] | < 500
12 | CNC(=O)C1CCN(c2nc(N3CCN(CCN(C)C)CC3)nc3ccc(-c4c(C)noc4C)cc23)CC1 [Example 267, 1-(2-(4-(2-(dimethylamino)ethyl)piperazin-1-yl)-6-(3,5-dimethylisoxazol-4-yl)quinazolin-4-yl)-N-methylpiperidine-4-carboxamide] | < 500
13 | Cc1noc(C)c1-c1ccc2nc(N3CCN(S(C)(=O)=O)CC3)nc(N3CCOC[C@H]3c3ccccc3)c2c1 [Example 268, (R)-4-(6-(3,5-dimethylisoxazol-4-yl)-2-(4-(methylsulfonyl)piperazin-1-yl)quinazolin-4-yl)-3-phenylmorpholine] | < 500
14 | Cc1noc(C)c1-c1ccc2nc(N3CCN(S(C)(=O)=O)CC3)nc(N3CCOC[C@@H]3c3ccccc3)c2c1 [Example 269, (S)-4-(6-(3,5-dimethylisoxazol-4-yl)-2-(4-(methylsulfonyl)piperazin-1-yl)quinazolin-4-yl)-3-phenylmorpholine] | < 500

Continued, values first:

Row | Kd [nM] | SMILES
15 | < 500 | CNC(=O)C1CCN(c2ncnc3ccc(-c4c(C)noc4C)cc23)CC1 [Example 270, 1-(6-(3,5-dimethylisoxazol-4-yl)quinazolin-4-yl)-N-methylpiperidine-4-carboxamide]
16 | < 500 | Cc1noc(C)c1-c1ccc2nc(C(=O)NC3CS(=O)(=O)C3)nc(NCc3cccc(Cl)c3)c2c1 [Example 271, 4-((3-chlorobenzyl)amino)-6-(3,5-dimethylisoxazol-4-yl)-N-(1,1-dioxidothietan-3-yl)quinazoline-2-carboxamide]
17 | < 500 | CNC(=O)Cn1cc(-c2nc(N3CCOC[C@@H]3c3ccccc3)c3cc(-c4c(C)noc4C)ccc3n2)cn1 [Example 272, (S)-2-(4-(6-(3,5-dimethylisoxazol-4-yl)-4-(3-phenylmorpholino)quinazolin-2-yl)-1H-pyrazol-1-yl)-N-methylacetamide]
18 | < 500 | Cc1noc(C)c1-c1ccc2nc(C(=O)N[C@H]3CC[C@H](O)CC3)nc(N3CCOC[C@@H]3c3ccccc3)c2c1 [Example 273, 6-(3,5-dimethylisoxazol-4-yl)-N-((trans)-4-hydroxycyclohexyl)-4-((S)-3-phenylmorpholino)quinazoline-2-carboxamide]
19 | < 500 | Cc1noc(C)c1-c1ccc2nc(C(=O)N[C@H]3CC[C@H](O)CC3)cc(NCc3cccc(Cl)c3)c2c1 [Example 274, 4-((3-chlorobenzyl)amino)-6-(3,5-dimethylisoxazol-4-yl)-N-((trans)-4-hydroxycyclohexyl)quinoline-2-carboxamide]
20 | < 500 | Cc1noc(C)c1-c1ccc2nc(C(=O)NC3CCS(=O)(=O)CC3)nc(N3CCOC[C@@H]3c3ccccc3)c2c1 [Example 275, (S)-6-(3,5-dimethylisoxazol-4-yl)-N-(1,1-dioxidotetrahydro-2H-thiopyran-4-yl)-4-(3-phenylmorpholino)quinazoline-2-carboxamide]
21 | 500 to 5000 | Cc1noc(C)c1-c1ccc2nc(C(=O)N3CCc4c(cnn4C)C3)nc(N3CCOC[C@@H]3c3ccccc3)c2c1 [Example 276, (S)-(6-(3,5-dimethylisoxazol-4-yl)-4-(3-phenylmorpholino)quinazolin-2-yl)(1-methyl-1,4,6,7-tetrahydro-5H-pyrazolo[4,3-c]pyridin-5-yl)methanone]
22 | < 500 | Cc1noc(C)c1-c1ccc2nc(C(=O)NC3CN(C)C3)nc(N3CCOC[C@@H]3c3ccccc3)c2c1 [Example 277, (S)-6-(3,5-dimethylisoxazol-4-yl)-N-(1-methylazetidin-3-yl)-4-(3-phenylmorpholino)quinazoline-2-carboxamide]
23 | 500 to 5000 | Cc1noc(C)c1-c1ccc2nc(N3CCc4c(cnn4C)C3)nc(NCc3cccc(Cl)c3)c2c1 [Example 278, N-(3-chlorobenzyl)-6-(3,5-dimethylisoxazol-4-yl)-2-(1-methyl-1,4,6,7-tetrahydro-5H-pyrazolo[4,3-c]pyridin-5-yl)quinazolin-4-amine]
